Test results reported in EP3892275A1, “AEROSOLIZATION OF HCQ OR ITS METABOLITES FOR THE TREATMENT OF LUNG INFECTIONS” (INSERM (Institut National de la Santé et de la Recherche …, priority 2020, dated 2021).

Columns and labels:
[1] = Behaviour in water (solubility, aggregation)
lung = details: aerosol delivery in animals; cited from earlier work
COVID = details: references 1,2; cited from earlier work

Row | Structure (SMILES) | aggregation when dissolved in water [1] | solubility in water [1] | anti-inflammatory effect on the lung (lung) | antiviral activity in vitro at a cellular level (COVID)
1 | CC(CCCNCCO)Nc1ccnc2cc(Cl)ccc12 (stereo not drawn) [DHCQ, N-desethylhydroxychloroquine] | do not aggregate | water-soluble | – | –
2 | CCN(CCO)CCCC(C)Nc1ccnc2cc(Cl)ccc12.O=S(=O)(O)O (stereo not drawn) [HCQ, 2-[[4-[(7-Chloro-4-quinolyl)amino]pentyl]ethylamino] ethanol sulfate (1:1)] | do not aggregate | water-soluble | rapid and potent anti-inflammatory effect on the lung | highly potent antiviral drug
